# System: Leishmania donovani
# Assay: Antileishmanial activity against Leishmania donovani promastigotes by alamar blue dye based fluorescence assay
# Format: functional, organism-based
SMILES,IC90 [µM],IC50 [µM]
C[C@@H]1[C@H](O)[C@@H](C)/C=C/C=C/C=C/C=C/C=C/C=C/C=C/[C@H](O[C@@H]2O[C@H](C)[C@@H](O)[C@H](N)[C@@H]2O)C[C@@H]2O[C@](O)(C[C@@H](O)C[C@@H](O)[C@H](O)CC[C@@H](O)C[C@@H](O)CC(=O)O[C@H]1C)C[C@H](O)[C@H]2C(=O)O [AMPHOTERICIN B],0.4,–
N=C(N)c1ccc(OCCCCCOc2ccc(C(=N)N)cc2)cc1 [PENTAMIDINE],17,9
C[C@@H]1C[C@H](OC(=O)c2cc(O)ccc2O)[C@H](O)[C@H](O)[C@@H]1O,> 134,100
C[C@@H]1C[C@H](O)[C@H](O)[C@H](O)[C@@H]1OCc1cc(O)ccc1O,119,57
